Experimental data reported in article PMC7087588 (Monatshefte Fur Chemie, 2019).
“Also recorded” adds a separate entry of the source.

Experiments:
[1] = test system: variety of DNA and RNA viruses; assay type: cell-based
[2] = test system: Punta Toro virus, yellow fever virus or Sindbis virus; assay type: cell-based

| SMILES | antiviral activity (in words) [1] | antiviral activity (in words) [2] |
| --- | --- | --- |
| O=C(NN1C(=O)CSC12CCCC2)c1[nH]c2ccc(Cl)cc2c1-c1ccccc1 [Compound 4a, 5-Chloro-N-(3-oxo-1-thia-4-azaspiro[4.4]nonan-4-yl)-3-phenyl-1H-indole-2-carboxamide] | no antiviral activity |  |
| O=C(NN1C(=O)CSC12CCCCC2)c1[nH]c2ccc(Cl)cc2c1-c1ccccc1 [Compound 4b, 5-Chloro-N-(3-oxo-1-thia-4-azaspiro[4.5]decan-4-yl)-3-phenyl-1H-indole-2-carboxamide] |  | moderately active; also recorded: inhibitory effect |
| CC1CCCC2(C1)SCC(=O)N2NC(=O)c1[nH]c2ccc(Cl)cc2c1-c1ccccc1 (stereo not drawn) [Compound 4c, 5-Chloro-N-(7-methyl-3-oxo-1-thia-4-azaspiro[4.5]decan-4-yl)-3-phenyl-1H-indole-2-carboxamide] |  | moderately active; also recorded: inhibitory effect |
| CC1SC2(CCCC2)N(NC(=O)c2[nH]c3ccc(Cl)cc3c2-c2ccccc2)C1=O (stereo not drawn) [Compound 5a, 5-Chloro-N-(2-methyl-3-oxo-1-thia-4-azaspiro[4.4]nonan-4-yl)-3-phenyl-1H-indole-2-carboxamide] | no antiviral activity |  |
| CC1SC2(CCCCC2)N(NC(=O)c2[nH]c3ccc(Cl)cc3c2-c2ccccc2)C1=O (stereo not drawn) [Compound 5b, 5-Chloro-N-(2-methyl-3-oxo-1-thia-4-azaspiro[4.5]decan-4-yl)-3-phenyl-1H-indole-2-carboxamide] |  | moderately active; also recorded: inhibitory effect |
| CC1CCC2(CC1)SC(C)C(=O)N2NC(=O)c1[nH]c2ccc(Cl)cc2c1-c1ccccc1 (stereo not drawn) [Compound 5d, 5-Chloro-N-(2,8-dimethyl-3-oxo-1-thia-4-azaspiro[4.5]decan-4-yl)-3-phenyl-1H-indole-2-carboxamide] |  | moderately active; also recorded: inhibitory effect |
